# Results reported in PubChem BioAssay (NCI).
#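 Interpolation was linear, between the two tested concentrations surrounding the appropriate level; five concentrations were tested over 48 hours in 96-well plates. GI50 marks 50% less growth. TGI is the concentration that stops growth completely.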
# System: MDA-MB-468 breast
# Test: NCI anticancer screen, dose series, 48 h
Compound,GI50 [µM],TGI [µM]
COc1ccccc1Nc1cc(O)c2c(=O)cc(-c3ccccc3)oc2c1,1.5,6.42
O=C1NC(=C(Cl)Cl)/C(=N/S(=O)(=O)N2CCCCC2)N1,2.39,13.3
CC(C)C[C@H](NC(=O)CNC(=O)c1cc(Cl)ccc1Cl)B(O)O,< 0.0137,0.0217
COc1ccc2ncn(-c3cc(O[C@H](C)c4ccccc4C(F)(F)F)c(C(N)=O)s3)c2c1,0.067,1
CC(C)(C)C(=O)OCOP(=O)(NCc1ccccc1)C1CCCN(O)C1=O (configuration not stated),1.43,5.07
CCCCCCCCCCCCCCCC1=NCC[N+]1(CCO)CCO,2.13,7.03
CCOC(=O)c1cc(C(=O)c2ccc(OC)cc2)n2ccc(/C=C/c3cc[n+](CC(=O)c4ccc(OC)cc4)cc3)cc12,1.71,3.63
CN[C@H]1CN(c2ccc3c(=O)c(C(=O)O)cn(-c4nccs4)c3n2)C[C@@H]1OC,0.822,2.86
Oc1c(Cl)cc(Cl)c(Cl)c1CNCCNCc1c(O)c(Cl)cc(Cl)c1Cl,0.917,5.85
COc1ccc(/C=C\c2cc(OC)c(OC)c(OC)c2)cc1OCC(=O)Nc1nc2ccc(F)cc2s1,3.68,> 100
C[C@@H](Oc1cc(-n2cnc3ccc(OC4CCN(C)CC4)cc32)sc1C(N)=O)c1ccccc1Cl,0.00441,0.202
O=C1N[C@@H]2[C@@H](O)[C@@H](O)[C@H](O)C[C@H]2c2cc3c(c(O)c21)OCCO3,0.0955,0.455
Cc1c(C)n(CCCN2CCN(C)CC2)c2ccc(Oc3cccc(C(=O)N4CCN(CCc5ccc(F)cc5)CC4)c3)cc12,1.16,2.47
C=C(c1ccc(OC)c(/C=C/C(=O)c2ccc3c(c2)OCO3)c1)c1cc(OC)c(OC)c(OC)c1,1.65,8.92
C=CN(C(=O)N1CCN(c2cc3c(cc2F)c(=O)c(C(=O)O)cn3C2CC2)CC1)c1nc(-c2ccc(OC)cc2)cs1,3.07,28
Cc1cc2c(C(=O)NC[C@H](C)c3ccccc3)c(O)c(O)cc2c(O)c1-c1c(C)cc2c(C(=O)NC[C@H](C)c3ccccc3)c(O)c(O)cc2c1O,0.596,3.38
NS(=O)(=O)OC[C@H]1C[C@@H](Nc2ccnc3cc(-c4cccc(SC(F)(F)F)c4)nn23)[C@H](O)[C@@H]1O,< 0.01,< 0.0127
CCOC(=O)c1c(NC(=O)c2ccc(C(F)(F)F)cc2)sc2c(CN3CCN(C)CC3)c(O)ccc12,1.78,3.93
Fc1ccc(-c2c(-c3ccncc3)nc3n2CCS3)cc1,> 10.4,> 25
Clc1c(Cl)[n+](Cc2ccc3ccccc3c2)cn1Cc1ccc2ccccc2c1,0.668,2.28
Fc1ccc(-c2cc3nc(C(Cl)Cl)nc(-c4ccco4)n3n2)cc1,0.242,0.793
CCOC(=O)C1=CCCC[C@H]1S(=O)(=O)Nc1ccc(F)cc1Cl,10.8,42.4

Compound,GI50 [µM],TGI [µM]
O=c1c2ccccc2sc2c(NCCCNCCO)nc3ccccc3c12,1.52,3.12
O=C(N/N=C/c1ccc([N+](=O)[O-])o1)c1[nH]c2ccc(Br)cc2c1-c1ccccc1,0.304,1.7
CC(=O)O[C@@H]1C2CCC3C(CC[C@@]4(C)C3CC[C@@H]4C(C)N(C)C)[C@@]2(C)CC[C@@H]1NC(=O)C=C(C)C (some centres not stated),1.4,3.06
COc1cc2c(cc1OC(C)C)[C@H](c1ccc(Cl)cc1)N(c1ccc(N(C)CC3CCC(N4CCN(C)C(=O)C4)CC3)cc1)C(=O)C2 (some centres not stated),3.37,8.93
CC[C@H](C)[C@H](NC(=O)[C@H]1CCCCN1C)C(=O)N(C)[C@H](C[C@@H](OC(C)=O)c1cccc(C(=O)N[C@@H](Cc2ccccc2)C[C@H](C)C(=O)OC)n1)C(C)C,0.000917,–
OC(CNc1ccnc2cc(Cl)ccc12)CNc1ccnc2cc(Cl)ccc12,1.43,2.93
O=C1Nc2c(ccc(Cl)c2Cl)/C1=C/c1cc(Br)c(O)c(Br)c1,2.96,> 26.3
CNC(=O)c1ccc(N2C(=S)N(c3cnc(C#N)c(C(F)(F)F)c3)C(=O)C23CCC3)cc1F,49.6,> 100
O=c1oc2ccc(I)cc2c(=O)n1-c1ccc(Br)cc1F,1.45,4.88
Cc1cccc2sc(/N=C(\N)C(Br)Br)nc12,1.63,4.58
COc1ccc(Cn2cc3c(c2-c2cc(OC)c(OC)c(OC)c2)CCCc2cnoc2-3)cc1,0.563,> 100
CNC(=O)c1c(C)oc2cc(Oc3ncnc4cc(OC)c(OC)cc34)ccc12,> 100,> 100
COc1cc2c(c(OC)c1OC)-c1ccc(OC)c(=O)cc1C(NC(=O)COc1ccccc1)CC2 (configuration not stated),< 0.01,59.4
CCc1ccc(Oc2c(-c3ccc(OCc4ccc(Cl)cc4)cc3O)n[nH]c2C(F)(F)F)cc1,1.73,3.96
Cc1onc(-c2ccccc2)c1C(=O)N/N=C/c1cc(Cl)cc(Cl)c1O,3.89,42.9
COc1ccc(C(=O)C(CN(C)C)CN(C)C)cc1,1.47,4.31
COc1cc(/C=C/c2cc(/C=C/c3ccc(O)c(OC)c3)n(C(=O)c3ccc(Cl)cc3)n2)ccc1O,2.64,7.9
COc1ccc(C2(Cl)c3ccccc3N(c3ccccc3)c3ccccc32)cc1,0.391,2.1
Cc1ccc(O)c(NC(=O)c2cccc(Nc3ccnc(C(F)(F)F)c3)c2)c1,3.19,54.9
O=C(CSc1nc2c(n1Nc1ccccc1)-c1ccccc1SC2)Nc1nc(-c2ccc(Cl)cc2)cs1,18,> 100
COc1cc(C(=O)NC2CCc3cc(OC)c(OC)c(OC)c3-c3ccc(OC)c(=O)cc32)cc(OC)c1OC (configuration not stated),0.0853,> 100
Cc1cc2nc(NCCN)n(Cc3ccc(F)c(Cl)c3)c2cc1C,3.61,15.8
